These results are taken from US8361797B2, “Myeloma cell culture in transferrin-free low iron medium” (Medimmune Limited, priority 2003, dated 2013).

Entries after “also recorded” stand apart in the source; their conditions may differ. Like-named read-outs stand apart in the source and are kept apart here.

The test system of one assay is hybridoma cell lines. The settings on record: cited from earlier work.
In assay [1] the test system is recombinant GS-NS0 mouse myeloma cell line (Cell line A). The format is cell-based.
The test system is the same in assay [2]. The format is cell-based. This is another data set of the same source.
The test system of a further assay is hybridoma cells. The note with it: cited from earlier work.
The test system of another assay is cell line A. The settings on record: 1 mg/L FAC, serum free and protein free GSF medium. An excerpt: Innoculum for these fermentations was provided by subculture of the cells in media the same as that used in the fermentations.
The test system of assay [3] is GS-NSO cell lines (Cell Lines C, D and E). The settings on record: protein free FAC medium, 4.5 L and 100 L. The procedure:
Cell Line C was grown at both 4.5 and 100 L scale, Cell Line D at 4.5 L scale and Cell Line E at 100 L scale.

For assay [4], the system named is recombinant NS0 mouse myeloma cell line selected using a G418 selection system. The settings on record: 1 mg/L FAC vs 1 mg/L transferrin and 0.1 mg/L FAC. An excerpt:
After 5 days, flasks were subcultured and then allowed to follow the full growth cycle.

The subject of assay [5] is recombinant GS-NS0 cell line (Cell line B). How it is done: Cells resuspended in this medium were then used to inoculate experimental flasks at an inoculation density of 2×10^5 cells/ml.
All flasks were also supplemented with 1 ml/L of a 1000× concentrated cholesterol and fatty acid supplement (CLOC).
Flasks were subcultured by dilution with fresh medium back to 2×10^5 cells/ml at 5 day intervals. On the second subculture flasks were allowed to overgrow to saturation. Cell counts were performed using the trypan blue exclusion method. Antibody titre analysis was performed using analytical protein A hplc against a homologous standard.

For the next assay, the system named is NSO myeloma cell lines. The note with it: FAC alone, 0.2 mg/L; cited from earlier work.
Assay [6] deals with mouse hybridoma cell line (9E10). How it is done: A mouse hybridoma cell line (9E10), producing anti-Myc antibody, previously subcultured in modified CDSS supplemented with 1 mg/L human transferrin and 6 mM Glutamine was used to inoculate experimental flasks at an inoculation density of 1×10^5 cells/ml.
Flasks were subcultured by dilution with fresh medium back to 1×10^5 cells/ml at 3 day intervals. On the third subculture flasks were allowed to overgrow. Cell counts were performed using the trypan blue exclusion method.

With `O=C([O-])CC(O)(CC(=O)[O-])C(=O)[O-].[Fe+3]` [FC, ferric citrate], in the assay with hybridoma cell lines, the “concentration required to support hybridoma cell growth with equivalence to transferrin” value is 500 µM. The “antibody titre compared to the transferrin containing control” value in [1] is “at least as much, and in the case of 10 mg/L FC significantly more antibody”. For the same molecule, in assay [2], the “concentration giving growth equivalent to transferrin containing control (maximum viable cell number and area underneath the growth curve)” value was not below 10 mg/L; the “concentration of FC relative to FAC required for cell growth equivalent to transferrin” value stood at 10 ×; the proliferation over subcultures result is listed as “unable to proliferate beyond the first subculture; also recorded: unable to proliferate beyond the second subculture”.

On to `O=c1cccccc1O` [tropolone, reference compound], for which the optimum concentration with hybridoma cells (tropolone used with FAC) was 5 µM.

As to ferric ammonium citrate [FAC], the “growth and antibody production” value in the assay on cell line A is “able to support good growth and antibody production in both media”. Further, the “growth and antibody productivity” value in assay [3] was “supports good growth of, and antibody productivity in, a wide range of cell lines”. Besides, the “support of hybridoma growth” value is reported as “able to support hybridoma growth in static culture” with hybridoma cell lines (10 mg/L, static culture, WO 94/02592); “this was not the case in agitated suspension culture” with hybridoma cells (10 mg/L, agitated suspension culture, WO 94/02592); “incapable of supporting the growth of hybridoma cells” with hybridoma cells (FAC alone, between 0.1 and 10 mg/L, no transferrin or tropolone). The “more antibody produced at 0.4 mg/L than at 100 mg/L” value in [1] (culture with 0.4 mg/L vs culture with 100 mg/L) was “over 30%”. Also, in [1] (overgrow cultures, sandwich ELISA), the “antibody titre compared to the transferrin containing control” value was “at least as much, and in the majority of the cases significantly more antibody”. The “growth vs transferrin containing medium” value in assay [4] is on record as “Equivalent growth”. Further, the optimum concentration with hybridoma cells (FAC used with tropolone) is 0.2 mg/L. In addition, the “concentration supporting growth equivalent to positive control culture” value in [5] (control 5 μM tropolone and 0.4 mg/L FAC, GSF medium) was not below 0.8 mg/L. Moreover, the “concentration supporting antibody production at least equivalent to control” value in [5] (overgrow cultures, protein A hplc) was not below 0.8 mg/L. Also, in the assay with NSO myeloma cell lines, the “support of NSO myeloma growth” value was “could not support the growth of the NSO myeloma cell lines”. Moreover, the proliferation over subcultures entry is recorded as “unable to proliferate beyond the first subculture” in assay [6] (0.2 mg/L); “unable to proliferate beyond the first subculture” in [6] (0.4 mg/L); “unable to proliferate beyond the second subculture” in [6] (1 mg/L); “unable to proliferate beyond the second subculture” in assay [6] (2 mg/L); “unable to proliferate beyond the second subculture” in [6] (10 mg/L); “able to proliferate after the first division, but was then unable to grow further” in [2] (0.2 mg/L). Besides, in assay [6] (agitated suspension culture), the “FAC concentration required by hybridoma cell lines relative to GS-NS0 cells for continuous cell growth” value is listed as more than 100 ×. Also, the “concentration required to support growth” value in [6] (hybridoma 9E10, agitated suspension) is not below 50 mg/L. The “concentration required for growth equivalent to transferrin containing control, maximum viable cell number” value in assay [6] (overgrow cultures) is given as 100 mg/L. For the same molecule, the “concentration giving growth equivalent to transferrin containing control, cumulative cell hours (CCH)” value in assay [6] (overgrow cultures, integral of area underneath growth curve) is 50 mg/L. For the same molecule, in assay [2] (duplicate of the experiment (FIG. 1c)), the “concentration able to support continuous cell growth” value came to 0.2 mg/L. Further, in assay [2] (modified CDSS, no transferrin, agitated suspension, three subcultures at 3 day intervals), the “concentration able to support continuous cell growth over several subcultures and during the overgrow culture” value was not below 0.4 mg/L. Moreover, in assay [2] (overgrow cultures), the “concentration giving growth equivalent to transferrin containing control (maximum viable cell number and area underneath the growth curve)” value is listed as not below 1 mg/L.
